# Measurements as given in patent US20100152285A1, “Flavononol Renin Inhibitor Compounds and Methods of Use Thereof” (HerbalScience Group LLC, priority 2008, published 2010).
# System: monocrotaline induced hypertension in rats
# Assay: Monocrotaline-induced hypertension rat model, tail-cuff blood pressure and pulse
# Format: in vivo, Sprague-Dawley rats
# Experimental: Animal Care and Handeling. Sprague-Dawley rats (Charles River Laboratories, Wilmington, Mass.) 60 days old and weighing 140-160 g were utilized. Animals were kept in standard autoclaved rodent cages with ad libitum food (Harlan Teklad Irradiated Rodent Diet) and autoclaved water. The rats were housed on Harlan Tek-chip pelleted paper in static micro isolators maintained at 22° C., 60% relative humidity, and under a 12 h light cycle. The animals were kept at the facility for 5 days to get accustomed to the environment after the arrival from the vendor. All animal care procedures complied with the recommendations of the Guide for Care and Use of Laboratory Animals with respect to restraint, husbandry, surgical procedures, feed and fluid regulation, and veterinary care. Induction of hypertension and the treatment. Rats were injected subcutaneously with monocrotaline (MCT, 60 mg kg^−1) and monitored for 12 days for the development of pulmonary inflammation and initiation of the pulmonary hypertensive response. After the incubation period, Tristenonol aglycone (Cmp. 15 of the present invention) was administrated orally to the animals in three different doses (120, 90, and 60 mg kg^−1 body weights). Blood pressure (BP; Systolic and Diastolic) and heart beats were recorded three times a day 24, 48, and 72 h after administration of compound BP.
# Test Articles and Animal Groups. Three doses of Tristenonol aglycone (Cmp 15 of the present invention) were tested. The animals were randomized before and grouped in to 10 animals per group. For positive controls used the commercially available drug Atenol® was used.
# Rats were sorted into six groups of ten and treated according to the protocol in Table 1. […] All remaining groups were administered monocrotaline. […] Groups 3, 4 and 5 received Tristenonol aglycone (Cmp 15 of the present invention) at […], 90, and 60 mg respectively per kg body weight 12 days after induction of hypertension with monocrotaline. Positive Control Group 6 was given the commercial drug Atenol® at 120 mg kg^−1.
# Systolic blood pressure, diastolic blood pressure and heart beats were recorded in the morning, afternoon and evening three times, 24, 48, and 72 h after Tristenonol aglycone (Cmp 15) and Atenol® administration.
# Protocol for the Measurement of the Blood Pressure. A tail-cuff was placed on the tail to occlude the blood flow. Upon deflation a non-invasive blood pressure sensors, placed distal to the occlusion cuff, was utilized to monitor the blood pressure. Volume Pressure Recording. The volume pressure recording sensor utilizes a specially designed differential pressure transducer to non-invasively measure the blood volume in the tail. Volume pressure recording actually measured six blood pressure parameters simultaneously: systolic blood pressure, diastolic blood pressure, mean blood pressure, heart pulse rate, tail blood volume and tail blood flow. […] In addition, volume pressure recording was not dependent on the skin pigmentation of the animal. Dark-skinned animals have no negative effect on volume pressure recording measurements. Special attention was afforded to the length of the occlusion cuff with volume pressure recording in order to derive the most accurate blood pressure readings. Endpoint Measurements. Each animal was sacrificed when the animal reached the predetermined endpoint of being moribund or when the animals remained […]. The animals were observed and if found incapable of eating or drinking or if their body temperature were too low to sustain life, the animals were sacrificed. Treatment efficacy is determined from the reduction in systolic blood pressure, diastolic blood pressure and heart beats of the animal compared to the untreated control group. Toxicity and Necropsy Examination. Animals were weighed daily throughout the experiment. […]
# [1] = 120 mg kg^−1 body weight, rats with monocrotaline
# [2] = monocrotaline 60 mg kg^−1 subcutaneously
Compound,decrease in Diastolic blood pressure compared to untreated control [1],reduction in pulse rate compared to untreated controls [1],"reduction of mean Systolic blood pressure compared to untreated animals (120 mg kg^−1 body weight, rats with monocrotaline, 24-72 h) [%]",increase in Diastolic blood pressure in injected rats [2],increase in Systolic blood pressure in injected rats [2],increase in pulse rate in injected animals [2]
CC(C)NCC(O)COc1ccc(CC(N)=O)cc1 (stereo not drawn) [Atenol®],24-25%,35-36.38%,28,–,–,–
"C[C@H]1C(=O)O[C@@H]2CCN3CC=C(COC(=O)[C@](C)(O)[C@]1(C)O)[C@H]23 [Monocrotaline, monocrotaline]",–,–,–,49-52%,40-45%,60-70%
